From ChEMBL document CHEMBL1201862, “PubChem BioAssay data set” (2004)
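Where inhibition never reached the appropriate level, the endpoint shown equals the highest concentration tested. Otherwise, values were interpolated linearly from a five-concentration, 48-hour dose response in 96-well plates. At the GI50, growth is halved.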 Active and inactive are the calls of the source. Rule as the data show it: active = GI50 up to about 1.1 µM and inactive = higher.

How the values were obtained:
Experiment in all cases: NCI tumour cell line growth inhibition, 48 h
[1] = test system: A498
[2] = test system: A549
[3] = test system: ACHN
[4] = test system: COLO 205
[5] = test system: DU-145
[6] = test system: HCT-116
[7] = test system: HOP-62
[8] = test system: HT-29
[9] = test system: IGROV-1
[10] = test system: MOLT-4
[11] = test system: OVCAR-3
[12] = test system: OVCAR-4
[13] = test system: PC-3
[14] = test system: SK-MEL-28
[15] = test system: SK-MEL-2
[16] = test system: SK-OV-3
[17] = test system: SNB-75
[18] = test system: U-251
[19] = test system: UACC-257
[20] = test system: UO-31

Measured: GI50

C=C1[C@H](OC(=O)C(C)C)[C@]23CC4(O)[C@@H]5[C@@]6(C)CCC[C@]57C([C@@H]2C[C@@]1(O)[C@H](O)[C@@H]73)N4C6
inactive: [1] > 100 µM | [2] > 100 µM | [3] 72.8 µM | [4] > 100 µM | [5] > 100 µM | [6] > 100 µM | [7] > 100 µM | [8] > 100 µM | [9] > 100 µM | [10] > 100 µM | [11] > 100 µM | [12] > 100 µM | [13] > 100 µM | [14] > 100 µM | [15] > 100 µM | [16] 98.6 µM | [17] > 100 µM | [18] > 100 µM | [19] > 100 µM | [20] > 100 µM

O=S(=O)(c1ccccc1)n1c2ccc(Br)cc2c2nc3ccccc3nc21
inactive: [1] > 100 µM | [2] > 100 µM | [3] > 100 µM | [4] > 100 µM | [5] > 100 µM | [6] > 100 µM | [7] > 100 µM | [8] > 100 µM | [9] > 100 µM | [10] > 100 µM | [11] > 100 µM | [12] > 100 µM | [13] > 100 µM | [14] > 100 µM | [15] > 100 µM | [17] > 100 µM | [18] > 100 µM | [19] > 100 µM | [20] > 100 µM

Cc1nc2c(O)nc3ccccc3c2o1
inactive: [1] > 100 µM | [2] > 100 µM | [3] > 100 µM | [4] > 100 µM | [5] > 100 µM | [6] > 100 µM | [7] > 100 µM | [8] > 100 µM | [9] 32 µM | [10] > 10 µM | [11] > 100 µM | [12] > 100 µM | [13] > 100 µM | [14] > 100 µM | [15] > 100 µM | [16] > 100 µM | [17] > 100 µM | [18] > 100 µM | [19] > 100 µM | [20] > 100 µM

N#CCCN(CCC#N)c1ccc(C(=N/c2ccc(Cl)cc2)/N=N/c2ccccc2)cc1
inactive: [1] > 100 µM | [2] 36.4 µM | [3] > 100 µM | [4] 48.8 µM | [5] 88.5 µM | [6] > 100 µM | [7] > 100 µM | [8] > 100 µM | [9] 55.7 µM | [10] > 100 µM | [11] 66.7 µM | [12] 66.5 µM | [13] > 100 µM | [14] > 100 µM | [16] > 100 µM | [17] 59.4 µM | [18] > 100 µM | [19] 59.4 µM | [20] 23.8 µM

CCN(CC)CC[n+]1ccc2c(C)c3[nH]c4ccccc4c3c(C)c2c1
inactive: [1] 3.04 µM | [3] 5 µM | [7] 1.22 µM
active: [5] 0.422 µM | [8] 0.684 µM | [10] 0.106 µM | [11] 0.236 µM | [13] 0.553 µM | [14] 0.533 µM | [15] 0.428 µM | [17] 0.276 µM | [18] 0.163 µM | [19] 0.713 µM

CCOC(=O)c1c(N2CCCC2)[nH]c(=O)c(C(c2c(O)c(C(=O)OCC)c(N3CCCC3)[nH]c2=O)C(C)C)c1O
inactive: [1] > 100 µM | [2] > 100 µM | [3] > 100 µM | [4] > 100 µM | [5] > 100 µM | [6] > 100 µM | [7] 94.4 µM | [8] > 100 µM | [10] > 100 µM | [11] > 100 µM | [12] > 100 µM | [13] 33.6 µM | [14] > 100 µM | [16] > 100 µM | [17] 25.3 µM | [18] 37.8 µM | [19] > 100 µM | [20] > 100 µM

C/C(=C/CC[C@](C)(OC1OC(CO)C(O)C(O)C1O)[C@H]1CC[C@]2(C)[C@@H]1CC[C@@H]1[C@@]3(C)CC[C@H](O)C(C)(C)[C@@H]3C[C@H](O)[C@]12C)CO (some centres undefined)
inactive: [1] 60 µM | [2] 39.5 µM | [3] 40.6 µM | [4] 21.3 µM | [5] 85.7 µM | [6] 18.2 µM | [7] 26.3 µM | [8] 11.6 µM | [9] 38 µM | [10] 12.2 µM | [11] 24.2 µM | [12] 51.9 µM | [13] 31.5 µM | [14] 18.2 µM | [16] 21.9 µM | [17] 8.43 µM | [18] 13.6 µM | [19] 22.6 µM | [20] 37.9 µM

O=[N+]([O-])c1ccc(/N=N/N2CCCC2)cc1
inactive: [1] > 100 µM | [3] > 100 µM | [4] > 100 µM | [5] > 100 µM | [6] > 100 µM | [7] > 100 µM | [9] > 100 µM | [10] > 100 µM | [11] > 100 µM | [12] > 100 µM | [13] > 100 µM | [15] > 100 µM | [16] > 100 µM | [17] > 100 µM | [18] > 100 µM | [19] > 100 µM | [20] > 100 µM

c1ncn(C23C4C5C6C4C2C6C53)n1 (centres undefined)
inactive: [1] > 100 µM | [2] > 100 µM | [3] > 100 µM | [4] > 100 µM | [5] > 100 µM | [6] > 100 µM | [7] > 100 µM | [8] > 100 µM | [9] > 100 µM | [10] > 100 µM | [13] > 100 µM | [14] > 100 µM | [15] > 100 µM | [16] > 100 µM | [17] > 100 µM | [18] > 100 µM | [19] > 100 µM

CN1Cc2ccccc2S(=O)(=O)n2cccc2C1=O
inactive: [1] > 100 µM | [2] > 100 µM | [3] > 100 µM | [4] > 100 µM | [5] > 100 µM | [6] > 100 µM | [7] > 100 µM | [9] > 100 µM | [10] > 100 µM | [11] > 100 µM | [12] > 100 µM | [13] > 100 µM | [14] > 100 µM | [15] > 100 µM | [16] > 100 µM | [17] > 100 µM | [18] > 100 µM | [19] > 100 µM | [20] > 100 µM

CN(C)Cc1cc(/N=N/c2ccccc2Cl)cc(CN(C)C)c1O
inactive: [1] 33.7 µM | [2] 77.4 µM | [3] > 100 µM | [4] 20.5 µM | [5] > 100 µM | [6] 53 µM | [7] 6.67 µM | [8] 42.9 µM | [9] 58.1 µM | [10] 20.5 µM | [11] 21.4 µM | [12] 60.1 µM | [13] 33.5 µM | [14] 18.5 µM | [17] 56.4 µM | [18] 84.3 µM | [19] 20.1 µM | [20] 23.3 µM

COc1cc(OC)c(OC)cc1/C=C/c1cc[n+](C)c2ccccc12
inactive: [1] > 100 µM | [2] 25.9 µM | [3] > 100 µM | [4] 5.96 µM | [5] 86.9 µM | [6] 27.8 µM | [7] 4.89 µM | [8] 30.5 µM | [9] 40 µM | [10] 21.2 µM | [12] 46.9 µM | [13] 20.7 µM | [14] > 100 µM | [16] 52.2 µM | [17] 47.4 µM | [18] 5.02 µM | [19] 16.1 µM | [20] > 100 µM

CC1(C)CC(=O)c2[nH]c3ccccc3c2CC(=O)NCCc2cn1cn2
inactive: [1] > 100 µM | [2] > 100 µM | [3] 61.1 µM | [4] > 100 µM | [5] > 100 µM | [6] > 100 µM | [8] > 100 µM | [9] > 100 µM | [10] > 100 µM | [11] > 100 µM | [12] > 100 µM | [13] > 100 µM | [14] > 100 µM | [15] > 100 µM | [16] > 100 µM | [17] > 100 µM | [18] 56.6 µM | [19] > 100 µM | [20] > 100 µM

Nc1nc(Cl)c(N)c(NCC2(CO)CCCC2)n1
inactive: [1] 44.7 µM | [2] > 100 µM | [3] > 100 µM | [5] > 100 µM | [6] > 100 µM | [7] 88.5 µM | [8] > 100 µM | [9] 84.7 µM | [10] 74.8 µM | [11] 62.1 µM | [12] > 100 µM | [13] > 100 µM | [14] > 100 µM | [15] > 100 µM | [16] 10.4 µM | [17] > 100 µM | [18] > 100 µM | [19] 71.6 µM | [20] > 100 µM

O=C1N[C@H]2c3c(Cl)sc(Cl)c3/C(=N/O)[C@H]2O1
inactive: [1] > 100 µM | [2] > 100 µM | [3] > 100 µM | [4] > 100 µM | [5] > 100 µM | [6] 80.7 µM | [7] > 100 µM | [8] > 100 µM | [9] 72.3 µM | [10] > 100 µM | [11] > 100 µM | [13] > 100 µM | [14] > 100 µM | [15] > 100 µM | [16] > 100 µM | [17] > 100 µM | [18] > 100 µM | [19] > 100 µM | [20] > 100 µM
